Measurements reported in US9781930B2, “3′-substituted-abscisic acid derivatives” (Valent BioSciences Corporation, priority 2014, dated 2017).

Test system: Arabidopsis thaliana seed
Test: Seed germination inhibition assay for testing Examples 1-28 and 47-50
Format: in vivo
Set-up: key to Arabidopsis seed germination inhibition potency: + + + +: The other derivatives were scored by potency relative to S-ABA.; (S)-ABA potency = + + +.; + +: The other derivatives were scored by potency relative to S-ABA.; ++: The other derivatives were scored by potency relative to S-ABA.; +: The other derivatives were scored by potency relative to S-ABA.; −− = no effect
Details: for Arabidopsis seed germination inhibition potency: 0.01-10.0 ppm in 96-well plates, scored on day 7, relative to (S)-ABA; for germination inhibition potency compared to (S)-ABA (in words): Arabidopsis seed germination
Method: Seed Germination Inhibition Assay for Testing Examples 1-28 and 47-50 To determine the germination inhibition potency of the (S)-ABA derivatives, germination assays were performed with the model plant Arabidopsis thaliana. Arabidopsis seed was sterilized by shaking for five minutes in 200-proof ethanol, and followed by shaking for five minutes in a 10% bleach solution. The seeds were then washed five times in sterile, distilled, de-ionized water and suspended in 0.1% phytoagar. The tubes containing the seeds were wrapped in aluminum foil and stratified at 4° C. for two days. All compounds were tested at eight concentrations of 0 (DMSO control), 0.01, 0.03, 0.1, 0.3, 1.0, 3.0, and 10.0 ppm in 96-well plates. Each plate contained eight replicates of each concentration of the test compound and eight replicates of (S)-ABA at 0.1 ppm as the positive control. As an additional set of controls, each run of the assay also contained one plate dosed with (S)-ABA covering a range of concentrations up to 10 ppm. For each compound, 10× stock solutions corresponding to each of the tested concentrations were prepared in distilled and de-ionized water containing 5% DMSO. The stock test solution (10 μL) was added to each well according to the scheme described above, and 90 μL of ½× Murashige and Skoog media containing 1.2% Bactoagar was then added to each well (final DMSO concentration was 0.5%). When the media solidified, ten to fifteen sterile stratified Arabidopsis seeds were distributed into each well using a repeat pipettor. The plates were sealed with surgical tape and placed in a growth chamber running diurnal cycles of 12 hours of light at 24° C. and 12 hours of darkness at 19° C. The plates were scanned on days 3 through 7, and scored on day 7. The 3′-substituted-(S)-ABA derivatives were scored on ability to inhibit germination relative to the potency of (S)-ABA. The results are summarized below in “Table 1: Arabidopsis seed germination inhibition activity of (S)-ABA derivatives.”

Compound | Arabidopsis seed germination inhibition potency | germination inhibition potency compared to (S)-ABA (in words)
CCC1=C(C)[C@](O)(/C=C/C(C)=C\C(=O)OC)C(C)(C)CC1=O [Example 1, (2Z,4E)-methyl 5-((S)-3-ethyl-1-hydroxy-2,6,6-trimethyl-4-oxocyclohex-2-en-1-yl)-3-methylpenta-2,4-dienoate] | + + + | just as effective as (S)-ABA
CCC1=C(C)[C@](O)(/C=C/C(C)=C\C(=O)O)C(C)(C)CC1=O [Example 2, (2Z,4E)-5-((S)-3-ethyl-1-hydroxy-2,6,6-trimethyl-4-oxocyclohex-2-en-1-yl)-3-methylpenta-2,4-dienoic acid] | + + + | just as effective as (S)-ABA
CCCC1=C(C)[C@](O)(/C=C/C(C)=C\C(=O)O)C(C)(C)CC1=O [Example 3, (2Z,4E)-5-((S)-1-hydroxy-2,6,6-trimethyl-4-oxo-3-propylcyclohex-2-en-1-yl)-3-methylpenta-2,4-dienoic acid] | + + | 
C=CCC1=C(C)[C@](O)(/C=C/C(C)=C\C(=O)O)C(C)(C)CC1=O [Example 4, (2Z,4E)-5-((S)-3-allyl-1-hydroxy-2,6,6-trimethyl-4-oxocyclohex-2-en-1-yl)-3-methylpenta-2,4-dienoic acid] | + + + | just as effective as (S)-ABA
C#CCC1=C(C)[C@](O)(/C=C/C(C)=C\C(=O)O)C(C)(C)CC1=O [Example 5, (2Z,4E)-5-((S)-1-hydroxy-2,6,6-trimethyl-4-oxo-3-(prop-2-yn-1-yl)cyclohex-2-en-1-yl)-3-methylpenta-2,4-dienoic acid] | + + + + | more potent than (S)-ABA
CCCCC1=C(C)[C@](O)(/C=C/C(C)=C\C(=O)O)C(C)(C)CC1=O [Example 6, (2Z,4E)-5-((S)-3-butyl-1-hydroxy-2,6,6-trimethyl-4-oxocyclohex-2-en-1-yl)-3-methylpenta-2,4-dienoic acid] | + | 
CC1=C(CCCCO)C(=O)CC(C)(C)[C@@]1(O)/C=C/C(C)=C\C(=O)O [Example 7, (2Z,4E)-5-((S)-1-hydroxy-3-(4-hydroxybutyl)-2,6,6-trimethyl-4-oxocyclohex-2-en-1-yl)-3-methylpenta-2,4-dienoic acid] | −− | 
CCCCCC1=C(C)[C@](O)(/C=C/C(C)=C\C(=O)O)C(C)(C)CC1=O [Example 8, (2Z,4E)-5-((S)-1-hydroxy-2,6,6-trimethyl-4-oxo-3-pentylcyclohex-2-en-1-yl)-3-methylpenta-2,4-dienoic acid] | −− | 
CC1=C(CC(=O)OC(C)(C)C)C(=O)CC(C)(C)[C@@]1(O)/C=C/C(C)=C\C(=O)O [Example 9, (2Z,4E)-5-((S)-3-(2-(tert-butoxy)-2-oxoethyl)-1-hydroxy-2,6,6-trimethyl-4-oxocyclohex-2-en-1-yl)-3-methylpenta-2,4-dienoic acid] | −− | 
CC1=C(CC(=O)O)C(=O)CC(C)(C)[C@@]1(O)/C=C/C(C)=C\C(=O)O [Example 10, (2Z,4E)-5-((S)-3-(carboxymethyl)-1-hydroxy-2,6,6-trimethyl-4-oxocyclohex-2-en-1-yl)-3-methylpenta-2,4-dienoic acid] | −− | 
CC1=C(CC#N)C(=O)CC(C)(C)[C@@]1(O)/C=C/C(C)=C\C(=O)O [Example 11, (2Z,4E)-5-((S)-3-(cyanomethyl)-1-hydroxy-2,6,6-trimethyl-4-oxocyclohex-2-en-1-yl)-3-methylpenta-2,4-dienoic acid] | ++ | 
CC1=C(CC(=O)N(C)C)C(=O)CC(C)(C)[C@@]1(O)/C=C/C(C)=C\C(=O)O [Example 12, (2Z,4E)-5-((S)-3-(2-(dimethylamino)-2-oxoethyl)-1-hydroxy-2,6,6-trimethyl-4-oxocyclohex-2-en-1-yl)-3-methylpenta-2,4-dienoic acid] | −− | 
CC1=C(Cc2ccccc2)C(=O)CC(C)(C)[C@@]1(O)/C=C/C(C)=C\C(=O)O [Example 13, (2Z,4E)-5-((S)-3-benzyl-1-hydroxy-2,6,6-trimethyl-4-oxocyclohex-2-en-1-yl)-3-methylpenta-2,4-dienoic acid] | −− | 
CC1=C(Cc2ccc3ccccc3c2)C(=O)CC(C)(C)[C@@]1(O)/C=C/C(C)=C\C(=O)O [Example 14, (2Z,4E)-5-((S)-1-hydroxy-2,6,6-trimethyl-3-(naphthalen-2-ylmethyl)-4-oxocyclohex-2-en-1-yl)-3-methylpenta-2,4-dienoic acid] | −− | 
CC1=C(Cc2cccc3ccccc23)C(=O)CC(C)(C)[C@@]1(O)/C=C/C(C)=C\C(=O)O [Example 15, (2Z,4E)-5-((S)-1-hydroxy-2,6,6-trimethyl-3-(naphthalen-1-ylmethyl)-4-oxocyclohex-2-en-1-yl)-3-methylpenta-2,4-dienoic acid] | −− | 
CC1=C(Cc2ccccc2C)C(=O)CC(C)(C)[C@@]1(O)/C=C/C(C)=C\C(=O)O [Example 16, (2Z,4E)-5-((S)-1-hydroxy-2,6,6-trimethyl-3-(2-methylbenzyl)-4-oxocyclohex-2-en-1-yl)-3-methylpenta-2,4-dienoic acid] | −− | 
CC1=C(Cc2cccc(C)c2)C(=O)CC(C)(C)[C@@]1(O)/C=C/C(C)=C\C(=O)O [Example 17, (2Z,4E)-5-((S)-1-hydroxy-2,6,6-trimethyl-3-(3-methylbenzyl)-4-oxocyclohex-2-en-1-yl)-3-methylpenta-2,4-dienoic acid] | −− | 
CC1=C(Cc2ccc(C)cc2)C(=O)CC(C)(C)[C@@]1(O)/C=C/C(C)=C\C(=O)O [Example 18, (2Z,4E)-5-((S)-1-hydroxy-2,6,6-trimethyl-3-(4-methylbenzyl)-4-oxocyclohex-2-en-1-yl)-3-methylpenta-2,4-dienoic acid] | −− | 
CC1=C(Cc2ccccc2F)C(=O)CC(C)(C)[C@@]1(O)/C=C/C(C)=C\C(=O)O [Example 19, (2Z,4E)-5-((S)-3-(2-fluorobenzyl)-1-hydroxy-2,6,6-trimethyl-4-oxocyclohex-2-en-1-yl)-3-methylpenta-2,4-dienoic acid] | −− | 
CC1=C(Cc2cccc(F)c2)C(=O)CC(C)(C)[C@@]1(O)/C=C/C(C)=C\C(=O)O [Example 20, (2Z,4E)-5-((S)-3-(3-fluorobenzyl)-1-hydroxy-2,6,6-trimethyl-4-oxocyclohex-2-en-1-yl)-3-methylpenta-2,4-dienoic acid] | −− | 
CC1=C(Cc2ccc(F)cc2)C(=O)CC(C)(C)[C@@]1(O)/C=C/C(C)=C\C(=O)O [Example 21, (2Z,4E)-5-((S)-3-(4-fluorobenzyl)-1-hydroxy-2,6,6-trimethyl-4-oxocyclohex-2-en-1-yl)-3-methylpenta-2,4-dienoic acid] | −− | 
CC1=C(Cc2ccc(F)c(F)c2)C(=O)CC(C)(C)[C@@]1(O)/C=C/C(C)=C\C(=O)O [Example 22, (2Z,4E)-5-((S)-3-(3,4-difluorobenzyl)-1-hydroxy-2,6,6-trimethyl-4-oxocyclohex-2-en-1-yl)-3-methylpenta-2,4-dienoic acid] | −− | 
CC1=C(Cc2cc(F)cc(F)c2)C(=O)CC(C)(C)[C@@]1(O)/C=C/C(C)=C\C(=O)O [Example 23, (2Z,4E)-5-((S)-3-(3,5-difluorobenzyl)-1-hydroxy-2,6,6-trimethyl-4-oxocyclohex-2-en-1-yl)-3-methylpenta-2,4-dienoic acid] | −− | 
CC1=C(Cc2ccccc2Cl)C(=O)CC(C)(C)[C@@]1(O)/C=C/C(C)=C\C(=O)O [Example 24, (2Z,4E)-5-((S)-3-(2-chlorobenzyl)-1-hydroxy-2,6,6-trimethyl-4-oxocyclohex-2-en-1-yl)-3-methylpenta-2,4-dienoic acid] | −− | 
CC1=C(Cc2ccc(Cl)cc2)C(=O)CC(C)(C)[C@@]1(O)/C=C/C(C)=C\C(=O)O [Example 25, (2Z,4E)-5-((S)-3-(4-chlorobenzyl)-1-hydroxy-2,6,6-trimethyl-4-oxocyclohex-2-en-1-yl)-3-methylpenta-2,4-dienoic acid] | −− | 
